These results are taken from PubChem BioAssay AID328 (DTP/NCI, 2004).

“And” between values parts separate entries of the source, which are not always exact repeats. Equal values may be shown once. Inconclusive results and toxic doses are left out.

This test relates to BDF1 mice, P388 leukemia ip, median survival T/C. The test is described as follows: NCI In Vivo Anticancer Drug Screen. Data for tumor model P388 Leukemia (intraperitoneal) in B6D2F1 (BDF1) mice. The note with it: endpoint: median survival time, higher = longer survival. The method in brief:
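T/C = treated-group survival ÷ vehicle-control survival; tumour transplanted into mice before dosing.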

Where [1] appears, read: dose: 2.0 mg/kg/injection, schedule: Q01DX009 (ip), vehicle: Klucel (hydroxypropylcellulose) (HPC).
[2] abbreviates: dose: 8.0 mg/kg/injection, schedule: Q01DX009 (ip), vehicle: Klucel (hydroxypropylcellulose) (HPC).
[3] abbreviates: dose: 100.0 mg/kg/injection, schedule: Q04DX003 (ip), vehicle: Klucel (hydroxypropylcellulose) (HPC).
[4] abbreviates: dose: 50.0 mg/kg/injection, schedule: Q01DX009 (ip), vehicle: saline with Tween-80.
[5] abbreviates: dose: 100.0 mg/kg/injection, schedule: Q01DX009 (ip), vehicle: saline with Tween-80.
The mark [6] stands for this setting: dose: 100.0 mg/kg/injection, schedule: Q04DX003 (ip), vehicle: saline with Tween-80.
[7] abbreviates: dose: 200.0 mg/kg/injection, schedule: Q04DX003 (ip), vehicle: saline with Tween-80.
Setting [8] is: dose: 400.0 mg/kg/injection, schedule: Q04DX003 (ip), vehicle: saline with Tween-80.

For `CCCCCCCCCCCCCCCCCC[n+]1cccc(C(=O)N2CCOCC2)c1`, the T/C is, setting by setting: (dose: 1.0 mg/kg/injection, schedule: Q01DX009 (ip), vehicle: saline with Tween-80) 108 % of control; under setting [1], 100 % of control; (dose: 2.0 mg/kg/injection, schedule: Q01DX009 (ip), vehicle: saline with Tween-80) 95 % of control; (dose: 4.0 mg/kg/injection, schedule: Q01DX009 (ip), vehicle: Klucel (hydroxypropylcellulose) (HPC)) 90 % of control; (dose: 4.0 mg/kg/injection, schedule: Q01DX009 (ip), vehicle: saline with Tween-80) 100 % of control; under setting [2], 109 % of control. Further, the T/C is 108 % of control (dose: 8.0 mg/kg/injection, schedule: Q01DX009 (ip), vehicle: saline with Tween-80); 104 % of control (dose: 16.0 mg/kg/injection, schedule: Q01DX009 (ip), vehicle: Klucel (hydroxypropylcellulose) (HPC)); 121 % of control (dose: 16.0 mg/kg/injection, schedule: Q01DX009 (ip), vehicle: saline with Tween-80); 100 % of control (dose: 25.0 mg/kg/injection, schedule: Q04DX003 (ip), vehicle: Klucel (hydroxypropylcellulose) (HPC)); 113 % of control (dose: 32.0 mg/kg/injection, schedule: Q01DX009 (ip), vehicle: Klucel (hydroxypropylcellulose) (HPC)); 109 % of control (dose: 50.0 mg/kg/injection, schedule: Q04DX003 (ip), vehicle: Klucel (hydroxypropylcellulose) (HPC)). In addition, the T/C under setting [3] was 90 % of control.
Take `OCc1nccn1Cc1ccccc1`: the T/C reads like this: (dose: 12.5 mg/kg/injection, schedule: Q01DX009 (ip), vehicle: water) 108 % of control; (dose: 25.0 mg/kg/injection, schedule: Q01DX009 (ip), vehicle: water) 99 % of control; (dose: 50.0 mg/kg/injection, schedule: Q01DX009 (ip), vehicle: water) 101 % of control; (dose: 100.0 mg/kg/injection, schedule: Q01DX009 (ip), vehicle: water) 108 % of control; (dose: 200.0 mg/kg/injection, schedule: Q01DX009 (ip), vehicle: water) 101 % of control; (dose: 300.0 mg/kg/injection, schedule: Q01DX009 (ip), vehicle: water) 114 % of control.
Consider `CS(=O)CC(O)(c1ccc(F)cc1)C1CC1` (centres undefined), for which the T/C under setting [4] was 99 % of control and the T/C under setting [5] is 103 % of control.
Regarding `O=C1c2ccccc2C(=O)c2c(O)c3c(c(O)c21)CC=CC3`, the T/C by setting is: (dose: 3.12 mg/kg/injection, schedule: Q01DX009 (ip), vehicle: saline with Tween-80) 107 % of control; (dose: 6.25 mg/kg/injection, schedule: Q01DX009 (ip), vehicle: saline with Tween-80) 112 % of control; (dose: 12.5 mg/kg/injection, schedule: Q01DX009 (ip), vehicle: saline with Tween-80) 104 % of control; (dose: 25.0 mg/kg/injection, schedule: Q01DX009 (ip), vehicle: saline with Tween-80) 98 % of control; under setting [4], 98 % of control.
Take `Cc1ccc(NC(=O)/C=C\C(=O)O)cc1`: the T/C runs as follows: under setting [3], 108 % of control; (dose: 200.0 mg/kg/injection, schedule: Q04DX003 (ip), vehicle: Klucel (hydroxypropylcellulose) (HPC)) 100 % of control; (dose: 400.0 mg/kg/injection, schedule: Q04DX003 (ip), vehicle: Klucel (hydroxypropylcellulose) (HPC)) 100 % of control.
For `CC(=O)Oc1ccc(N2C(=O)C3C(C2=O)C2c4ccccc4C3C3CCCCN32)cc1` (centres undefined) (tested in a mixture with another compound), the T/C by setting is: (dose: 6.25 mg/kg/injection, schedule: Q04DX003 (ip), vehicle: water) 97 % of control; (dose: 12.5 mg/kg/injection, schedule: Q04DX003 (ip), vehicle: water) 101 % of control; (dose: 25.0 mg/kg/injection, schedule: Q04DX003 (ip), vehicle: water) 99 % of control; (dose: 50.0 mg/kg/injection, schedule: Q04DX003 (ip), vehicle: water) 101 % of control; (dose: 100.0 mg/kg/injection, schedule: Q04DX003 (ip), vehicle: water) 91 % of control.
Regarding `CC[CH2][Pb]([Cl])([CH2]CC)[CH2]CC`, the T/C (dose: 0.18 mg/kg/injection, schedule: Q01DX009 (ip), vehicle: DMSO) is 87 % of control; the T/C (dose: 0.37 mg/kg/injection, schedule: Q01DX009 (ip), vehicle: DMSO) is 109 % of control; the T/C (dose: 0.75 mg/kg/injection, schedule: Q01DX009 (ip), vehicle: DMSO) was 102 % of control.
For `O=C(CCCc1ccc(N(CCCl)CCCl)cc1)Nc1ncccn1`, the T/C was 88 % of control under setting [1]; 115 % of control (dose: 3.0 mg/kg/injection, schedule: Q01DX009 (ip), vehicle: Klucel (hydroxypropylcellulose) (HPC)); 152 % of control (dose: 6.0 mg/kg/injection, schedule: Q01DX009 (ip), vehicle: Klucel (hydroxypropylcellulose) (HPC)); 188 % of control under setting [2]; 112 % of control (dose: 18.0 mg/kg/injection, schedule: Q01DX009 (ip), vehicle: Klucel (hydroxypropylcellulose) (HPC)); 92 % of control (dose: 25.0 mg/kg/injection, schedule: Q01DX009 (ip), vehicle: Klucel (hydroxypropylcellulose) (HPC)).
For `CC(=O)Oc1ccc(C2C3=C(COC3=O)CC3=C2C(=O)OC3)cc1`, the T/C reads like this: (dose: 100.0 mg/kg/injection, schedule: Q01DX007 (ip), vehicle: saline with Tween-80) 95 % of control; under setting [6], 100 % of control; (dose: 200.0 mg/kg/injection, schedule: Q01DX007 (ip), vehicle: saline with Tween-80) 90 % of control; under setting [7], 110 % of control; (dose: 400.0 mg/kg/injection, schedule: Q01DX007 (ip), vehicle: saline with Tween-80) 100 % of control; under setting [8], 100 % of control.
As for `CCSC(C)C`, the T/C by setting is: (dose: 100.0 mg/kg/injection, schedule: Q04DX003 (ip), vehicle: saline) 100 % of control; (dose: 200.0 mg/kg/injection, schedule: Q04DX003 (ip), vehicle: saline) 104 % of control; (dose: 400.0 mg/kg/injection, schedule: Q04DX003 (ip), vehicle: saline) 95 % of control.
Take `Cc1ccc(C(=O)C2CC2)c(C)c1`: the T/C under setting [4] was 92 % of control; the T/C under setting [5] is 103 % of control; the T/C under setting [6] was 112 % of control; the T/C (dose: 200.0 mg/kg/injection, schedule: Q01DX009 (ip), vehicle: saline with Tween-80) was 100 % of control; the T/C under setting [7] was 120 % of control; the T/C under setting [8] is 108 % of control.
Turning to `CCOc1ccc(Nc2c3ccccc3nc3ccccc23)cc1`, the T/C by setting is: (dose: 0.39 mg/kg/injection, schedule: Q01DX009 (ip), vehicle: Klucel (hydroxypropylcellulose) (HPC)) 110 % of control; (dose: 0.78 mg/kg/injection, schedule: Q01DX009 (ip), vehicle: Klucel (hydroxypropylcellulose) (HPC)) 114 % of control; (dose: 1.56 mg/kg/injection, schedule: Q01DX009 (ip), vehicle: Klucel (hydroxypropylcellulose) (HPC)) 96 % of control; (dose: 50.0 mg/kg/injection, schedule: Q01DX009 (ip), vehicle: Klucel (hydroxypropylcellulose) (HPC)) 159 % of control.
Regarding `CCCOC(=O)/C=C(\Br)C(=O)OCCC`, the T/C by setting is: (dose: 12.5 mg/kg/injection, schedule: Q04DX003 (ip), vehicle: saline with Tween-80) 108 % of control; (dose: 25.0 mg/kg/injection, schedule: Q04DX003 (ip), vehicle: saline with Tween-80) 110 % of control; (dose: 50.0 mg/kg/injection, schedule: Q04DX003 (ip), vehicle: saline with Tween-80) 95 % of control.
In the case of `CCCCSC#N`, the T/C runs as follows: (dose: 6.25 mg/kg/injection, schedule: Q01DX001 (ip), vehicle: saline) 94 % of control; (dose: 12.5 mg/kg/injection, schedule: Q01DX001 (ip), vehicle: saline) 100 % of control.
Regarding `CC(C)COC(=O)C1(N)CCCC1`, the T/C is, setting by setting: (dose: 50.0 mg/kg/injection, schedule: Q01DX009 (ip), vehicle: saline) 100 % of control; (dose: 66.0 mg/kg/injection, schedule: Q01DX009 (ip), vehicle: saline with Tween-80) 95 % of control and 108 % of control; (dose: 100.0 mg/kg/injection, schedule: Q01DX009 (ip), vehicle: saline) 177 % of control; (dose: 150.0 mg/kg/injection, schedule: Q01DX009 (ip), vehicle: saline with Tween-80) 108 % of control and 116 % of control; (dose: 200.0 mg/kg/injection, schedule: Q01DX009 (ip), vehicle: saline) 95 % of control.
Turning to `C1OC1CO[C@@H]1CO[C@H]2[C@@H]1OC[C@H]2OCC1CO1` (some centres undefined), the T/C by setting is: (dose: 264.0 mg/kg/injection, schedule: Q04DX003 (ip), vehicle: saline with Tween-80) 183 % of control; under setting [8], 195 % of control.
